According to the Deep4Chem optical property database:

Test: photoluminescence quantum yield (fraction); solvent given as SMILES

CCOc1cc(C=C2c3ccccc3-c3ccccc32)c(OCC)cc1C=C1c2ccccc2C=Cc2ccccc21
photoluminescence quantum yield (in C1CCOC1): 0.00012

CCCCCCn1c2cc(C(=O)OCC)ccc2c2c1c1ccc(C(=O)OCC)cc1n2CCCCCC
photoluminescence quantum yield (in CCCO): 0.6

COc1cc2c(cc1/C=C(\C#N)c1nc3ccccc3s1)c1ccccc1n2C
photoluminescence quantum yield (in C1CCOC1): 0.002 | photoluminescence quantum yield (in CC#N): 0.001 | photoluminescence quantum yield (in CCOC(C)=O): 0.003 | photoluminescence quantum yield (in CN(C)C=O): 0.003 | photoluminescence quantum yield (in CO): 0.001 | photoluminescence quantum yield (in CS(C)=O): 0.004 | photoluminescence quantum yield (in Cc1ccccc1): 0.003 | photoluminescence quantum yield (in ClC(Cl)Cl): 0.003 | photoluminescence quantum yield (in ClCCl): 0.003

CC(C)[Si](C#Cc1c2cc3ccccc3cc2c(C#C[Si](C(C)C)(C(C)C)C(C)C)c2nc3c(ccc4cc5ccccc5cc43)nc12)(C(C)C)C(C)C
photoluminescence quantum yield (in CCCCCC): 0.26

CCCCCc1c(C)c2c3ccccc3[nH]c2c2ccccc12
photoluminescence quantum yield (in ClCCl): 0.167

Cn1nc(-c2ccccc2)c2nc3cc(Cl)ccc3nc21
photoluminescence quantum yield (in C1CCCCC1): 0.58 | photoluminescence quantum yield (in C1CCOC1): 0.27 | photoluminescence quantum yield (in CC#N): 0.08

[O-][n+]1c(/C=C/c2ccc3ccccc3c2)nc(N2CCOCC2)c2c1CCCC2
photoluminescence quantum yield (in ClCCl): 0.05

N#CC(C#N)=Cc1ccc(-c2ccc(O)c(-c3nc4ccccc4s3)c2)s1
photoluminescence quantum yield (in CCO): 0.0198 | photoluminescence quantum yield (in ClCCl): 0.016

Cc1ccc(C2=C3C=CC(C#Cc4ccccc4)=[N+]3[B-](F)(F)n3c(C#Cc4ccccc4)ccc32)cc1
photoluminescence quantum yield (in C1CCCCC1): 1 | photoluminescence quantum yield (in C1CCOC1): 0.99 | photoluminescence quantum yield (in C1COCCO1): 1 | photoluminescence quantum yield (in CCOC(C)=O): 1 | photoluminescence quantum yield (in CO): 1 | photoluminescence quantum yield (in Cc1ccccc1): 1 | photoluminescence quantum yield (in ClC(Cl)Cl): 1 | photoluminescence quantum yield (in ClCCl): 1

O=C1c2cc(-n3c4ccccc4c4ccccc43)ccc2S(=O)(=O)c2ccc(-n3c4ccccc4c4ccccc43)cc21
photoluminescence quantum yield (in c1cc(-c2cccc(-n3c4ccccc4c4ccccc43)c2)cc(-n2c3ccccc3c3ccccc32)c1): 0.348

c1ccc(-c2nc3c4ccccc4c4ccccc4c3n2-c2cccc(-c3nc4c5ccccc5c5ccccc5c4n3-c3ccccc3)c2)cc1
photoluminescence quantum yield (in Cc1ccccc1): 0.75

CC1=C(C(C)(C)C)C(C)=[N+]2C1=C(C)c1c(C)c(C(C)(C)C)c(C)n1[B-]2(F)F
photoluminescence quantum yield (in C1CCCCC1): 0.32 | photoluminescence quantum yield (in C1CCOC1): 0.37 | photoluminescence quantum yield (in C1COCCO1): 0.4 | photoluminescence quantum yield (in CC#N): 0.44 | photoluminescence quantum yield (in CC(C)=O): 0.44 | photoluminescence quantum yield (in CC(C)CC(C)(C)C): 0.4 | photoluminescence quantum yield (in CCC(C)C): 0.4 | photoluminescence quantum yield (in CCCC(C)=O): 0.46 | photoluminescence quantum yield (in CCCCCC): 0.43 | photoluminescence quantum yield (in CCCCCCCCO): 0.41 | photoluminescence quantum yield (in CCCCCCO): 0.42 | photoluminescence quantum yield (in CCCCO): 0.39 | photoluminescence quantum yield (in CCCCOC(C)=O): 0.43 | photoluminescence quantum yield (in CCCO): 0.39 | photoluminescence quantum yield (in CCO): 0.43 | photoluminescence quantum yield (in CCOC(C)=O): 0.44 | photoluminescence quantum yield (in CCOCC): 0.43 | photoluminescence quantum yield (in CN(C)C=O): 0.35 | photoluminescence quantum yield (in CNC=O): 0.47 | photoluminescence quantum yield (in CO): 0.48 | photoluminescence quantum yield (in COC(C)=O): 0.48 | photoluminescence quantum yield (in OCC(F)(F)F): 0.49

Cc1ccc(-c2c3nc(c(-c4ccc(C)cc4)c4ccc([nH]4)c(-c4ccc(OC(=O)C(C)c5ccc(Oc6ccccc6)cc5)cc4)c4nc(c(-c5ccc(C)cc5)c5ccc2[nH]5)C=C4)C=C3)cc1 (configuration not stated)
photoluminescence quantum yield (in ClCCl): 0.128

CC(C)[Si](C#Cc1c2nsnc2c(C#C[Si](C(C)C)(C(C)C)C(C)C)c2nc3c(ccc4cc5ccccc5cc43)nc12)(C(C)C)C(C)C
photoluminescence quantum yield (in CCCCCC): 0.13

CCC1=C(C)C2=Cc3cc4c(cc3B(O)N2C1=O)OCO4
photoluminescence quantum yield (in CC#N): 0.57 | photoluminescence quantum yield (in CO): 0.3 | photoluminescence quantum yield (in CS(C)=O): 0.8 | photoluminescence quantum yield (in ClC(Cl)Cl): 0.61

CCCCC1(CCCC)c2cc(C#Cc3ccc(C=C4c5ccccc5C=Cc5ccccc54)cc3)ccc2-c2ccc(C#Cc3ccc(C=C4c5ccccc5C=Cc5ccccc54)cc3)cc21
photoluminescence quantum yield (in C1CCOC1): 0.00084

Cc1sc(Cl)cc1-c1nc(-c2ccccc2)[nH]c1-c1cc(Cl)sc1C
photoluminescence quantum yield (in CC#N): 0.017

c1cnc2c(c1)c1nc(-c3ccc(-c4nc5c6cccnc6c6ncccc6c5[nH]4)cc3)[nH]c1c1cccnc12
photoluminescence quantum yield (in CS(C)=O): 0.84

CCOC(=O)/N=c1/oc2cc(OC)cc(OC)c2cc1C#N
photoluminescence quantum yield (in ClCCl): 0.059

CCCC1(CCC)c2cc(-c3ccccc3)ccc2-c2ccc(-c3ccc4c(c3)C(CCC)(CCC)c3cc(-c5ccccc5)ccc3-4)cc21
photoluminescence quantum yield (in C1CCCCC1): 1

CC(C)(C)c1ccc2c(c1)c1cc(C(C)(C)C)cc3c1n2B1c2c-3cccc2-c2cc(C(C)(C)C)cc3c4cc(C(C)(C)C)ccc4n1c23
photoluminescence quantum yield (in C1CCOC1): 0.63

CCOc1cc2c(cc1/C=C/C1=CC(=C(C#N)C#N)CC(C)(C)C1)c1ccccc1n2CC
photoluminescence quantum yield (in C1CCOC1): 0.021 | photoluminescence quantum yield (in CC#N): 0.018 | photoluminescence quantum yield (in CCO): 0.025 | photoluminescence quantum yield (in CCOC(C)=O): 0.026 | photoluminescence quantum yield (in CN(C)C=O): 0.035 | photoluminescence quantum yield (in CS(C)=O): 0.05 | photoluminescence quantum yield (in Cc1ccccc1): 0.008 | photoluminescence quantum yield (in ClC(Cl)Cl): 0.017 | photoluminescence quantum yield (in ClCCl): 0.028

CCC1=C(C)C2=Cc3cccn3[B-](F)(F)[N+]2=C1C
photoluminescence quantum yield (in C1CCCCC1): 0.7 | photoluminescence quantum yield (in CC(C)=O): 0.65 | photoluminescence quantum yield (in CCO): 0.69 | photoluminescence quantum yield (in CCOC(C)=O): 0.69 | photoluminescence quantum yield (in CO): 0.6 | photoluminescence quantum yield (in OCC(F)(F)F): 0.49

CC(C)[Si]1(C(C)C)c2cc(C=O)ccc2-c2ccc(N(c3ccccc3)c3ccccc3)cc21
photoluminescence quantum yield (in C1CCCCC1): 0.5 | photoluminescence quantum yield (in CC#N): 0.48 | photoluminescence quantum yield (in CCO): 0.11 | photoluminescence quantum yield (in CCOCC): 0.76 | photoluminescence quantum yield (in CS(C)=O): 0.58 | photoluminescence quantum yield (in ClCCl): 0.8 | photoluminescence quantum yield (in c1ccccc1): 0.77

Cc1ccc2nc3cc4c(cc3c(-c3ccccc3)c2c1)[Si](C)(C)O[Si]4(C)C
photoluminescence quantum yield (in ClCCl): 0.27

CCCCN(CCCC)c1ccc(/C=C/c2ccc3nc(/C=C/c4ccc(N(C)C)cc4)c(=O)n(CCC)c3c2)cc1
photoluminescence quantum yield (in C1COCCO1): 0.26 | photoluminescence quantum yield (in CC#N): 0.04 | photoluminescence quantum yield (in ClCCl): 0.2

CCCCc1cc(-c2cccc(COC)c2)oc1-c1cccc(-c2cc(CCCC)c(-c3cccc(-c4cc(CCCC)c(-c5cccc(-c6oc(-c7cccc(-c8oc(-c9cccc(-c%10oc(-c%11cccc(COC)c%11)cc%10CCCC)c9)cc8CCCC)c7)cc6CCCC)c5)o4)c3)o2)c1
photoluminescence quantum yield (in ClC(Cl)Cl): 0.54

CCOC(=O)C1=CN(Cc2ccccc2)C=C(C(=O)OCC)C1
photoluminescence quantum yield (in C1CCOC1): 0.31 | photoluminescence quantum yield (in CO): 0.24

Cc1ccc(-[c+]2c3ccccc3oc3ccccc32)cc1
photoluminescence quantum yield (in CC#N): 0.014

ClP1(Cl)=N[P@@](Cl)(Oc2ccc3ccc4cccc5ccc2c3c45)=N[P@@](Cl)(Oc2ccc3ccc4cccc5ccc2c3c45)=N1
photoluminescence quantum yield (in ClCCl): 0.7

CCCCCCCCCCOc1ccc(C#Cc2cc3c(C#Cc4ccc(OCCCCCCCCCC)cc4)c(C#Cc4ccc(OCCCCCCCCCC)cc4)c4cc(C#Cc5ccc(OCCCCCCCCCC)cc5)cc5c(C#Cc6ccc(OCCCCCCCCCC)cc6)c(C#Cc6ccc(OCCCCCCCCCC)cc6)c(c2)c3c45)cc1
photoluminescence quantum yield (in ClCCl): 0.44

c1ccc(N(c2ccccc2)c2ccc(-c3ccc4c(c3)C3(c5ccccc5Sc5ccccc53)c3cc(-c5ccc(N(c6ccccc6)c6ccccc6)cc5)ccc3-4)cc2)cc1
photoluminescence quantum yield (in ClCCl): 0.81 | photoluminescence quantum yield (in c1cc(-n2c3ccccc3c3ccccc32)cc(-n2c3ccccc3c3ccccc32)c1): 0.88

CCCCCC(=O)c1ccc2c3c(sc2c1)-c1ccccc1P3(=O)c1ccccc1 (configuration not stated)
photoluminescence quantum yield (in ClCCl): 0.15

Cc1ccc(C#Cc2cc3ccccc3oc2=O)cc1
photoluminescence quantum yield (in CC#N): 0.73

Brc1cnc(-c2ccc(N(c3ccccc3)c3ccccc3)cc2)s1
photoluminescence quantum yield (in CO): 0.04

CN(C)c1ccc(C2=C(c3ccccc3)c3sc4ccccc4[n+]3[B-](F)(F)O2)cc1
photoluminescence quantum yield (in C1CCOC1): 0.01

CN(C)c1ccc(-c2nc(C#N)c(C#N)n2C)cc1
photoluminescence quantum yield (in C1CCCCC1): 0.85 | photoluminescence quantum yield (in CC#N): 0.02 | photoluminescence quantum yield (in CO): 0.003 | photoluminescence quantum yield (in ClC(Cl)Cl): 0.73

F[B-]1(F)n2c(ccc2-c2nc3ccccc3s2)C(c2ccccc2)=C2C=CC(c3nc4ccccc4s3)=[N+]21
photoluminescence quantum yield (in ClC(Cl)Cl): 0.86

COC(=O)c1cc2c(cc3ccc4cccc5ccc2c3c45)[nH]1
photoluminescence quantum yield (in C1CCOC1): 0.82

CCc1c(C)c2n(c1C)[B-](F)(F)[N+]1=C(C=C3C=Cc4ccccc43)C=CC1=C2C
photoluminescence quantum yield (in C1CCCCC1): 0.02

CCN(CC)c1ccc2cc(-c3cn4cc5ccccc5cc4n3)c(=O)oc2c1
photoluminescence quantum yield (in ClC(Cl)Cl): 0.92

CCn1c2ccccc2c2cc(C#Cc3cc(C#Cc4ccc5c(c4)c4ccccc4n5CC)nc(C#N)n3)ccc21
photoluminescence quantum yield (in C1CCOC1): 0.66 | photoluminescence quantum yield (in CCOC(C)=O): 0.68 | photoluminescence quantum yield (in CN(C)C=O): 0.21 | photoluminescence quantum yield (in Cc1ccccc1): 0.81 | photoluminescence quantum yield (in ClCCl): 0.65

COc1cccc(OC)c1-c1c2ccc(=[N+]3CCN(C(=O)OC(C)(C)C)CC3)cc-2oc2cc(N3CCN(C(=O)OC(C)(C)C)CC3)ccc12
photoluminescence quantum yield (in ClCCl): 0.49

COc1ccc(C(=Cc2ccc(/C=C(\C#N)c3ccc([N+](=O)[O-])cc3)cc2)c2ccc(OC)cc2)cc1
photoluminescence quantum yield (in C1CCOC1): 0.045

CCn1c2ccccc2c2cc(/C=C/c3cc(/C=C/c4ccc5c(c4)c4ccccc4n5CC)ncn3)ccc21
photoluminescence quantum yield (in C1CCOC1): 0.25 | photoluminescence quantum yield (in CCOC(C)=O): 0.25 | photoluminescence quantum yield (in CN(C)C=O): 0.42 | photoluminescence quantum yield (in Cc1ccccc1): 0.19 | photoluminescence quantum yield (in ClCCl): 0.29

O=C(O)c1cc2c(ccc3ccccc32)oc1=O
photoluminescence quantum yield (in C1COCCO1): 0.53 | photoluminescence quantum yield (in CC#N): 0.54 | photoluminescence quantum yield (in CCCCO): 0.27 | photoluminescence quantum yield (in CCO): 0.07 | photoluminescence quantum yield (in CO): 0.1 | photoluminescence quantum yield (in O): 0.41

COc1ccc2oc(-c3cc4cc(OC)ccc4oc3=O)cc2c1
photoluminescence quantum yield (in CS(C)=O): 0.16

Cn1c(=O)c(/N=N/c2ccc(/N=N/c3ccc(S(=O)(=O)O)cc3)cc2)c(O)c2ccccc21
photoluminescence quantum yield (in CS(C)=O): 0.05

C=C(C)C(CN1C(=O)c2cccc3c2c(cc2nc(C)oc23)C1=O)OO (configuration not stated)
photoluminescence quantum yield (in CCO): 0.061

Cc1ccc2c(c1)c(C#N)c(C#N)c1cc(C)ccc12
photoluminescence quantum yield (in ClC(Cl)Cl): 0.15

CC(C)[Si](C#Cc1ccc(C#C[Si](C(C)C)(C(C)C)C(C)C)c2nc3ccccc3nc12)(C(C)C)C(C)C
photoluminescence quantum yield (in ClCCl): 0.02
